Experiment [1] relates to full-thickness skin wounds. Kind of experiment: Scar index analysis (H&E histology) in mouse excisional wound model. It is filed as in vivo, Mice. Conditions: for scar index: topical, 5 daily treatments, harvest after 14 days. As for the experimental part: The mouse model used here can be considered one of the simplest and standard murine models for investigating scar formation and wound healing.
Mice were weighed and then anaesthetized with 5% isoflurane in air for induction and then administered 2.5-3% of isoflurane in air for the remainder of the procedure. The animals were administered Tramal (Tramadol) intraperitoneally for analgesia at a 0.1 mg/kg dose. Before surgery the back of the mice was shaved and disinfected with isobetadine soap, rinsed with water and then swabbed with iodium alcohol.
Four full-thickness skin wounds were performed by cutting the folded skin on the back of the mice with a 7.5 mm x 3 mm elliptical biopsy punch (Elliptical Excisional Instrument, Acuderm Inc.). The skin on the back was raised and folded at the level of the vertebral column by using the thumb and the index finger. The folded skin was then placed on a wood tongue depressor with the animal laying on one side and two wounds were performed through the folded skin by using an elliptical biopsy punch (Elliptical Excisional Instrument, Acuderm Inc.), resulting in four wounds on the back skin: two on the right of the vertebral column and two on the left (Figure 1). The epidermis, the dermis and the fat tissue in the wound was carefully removed without touching other tissues. The wounds were then immediately treated with topical application of Composition 1 (Tv - vehicle), Composition 2 (T1 - 1 µM Lipoxin A4), or Composition 3 (T2 - 100 µM Lipoxin A4). The position of the wounds that were treated with active agent (T1 or T2) or treated with vehicle (Tv) was randomised. The wound site was then covered with OP-Film (Somed International, the Netherlands). The borders were then fixed with cyanoacrylate glue (Loctite).
The mice were allowed to recover from the surgical preparation in a clean cage with fresh bedding and under a heating lamp. To avoid possible contamination the mice were placed in individual cages containing a cellulose bed that was changed every 24 hours. Single caging avoids other mice from detaching the adhesive patches.
The treatment was repeated at the day 1, 2, 3 and 4 post-surgery for a total of 5 treatments in the first 5 days of healing. At each time point the mice were briefly anaesthetized with isoflurane and a new dose of ointment was injected through the film onto the wound, after which the animal was left to recover. At day 5 all films were removed.
After 14 days the mice were sacrificed under isoflurane anaesthesia by cervical dislocation to harvest the regenerated tissue. Skin samples were taken. The back of the mouse was carefully shaved paying careful attention to not touch the wound area. […]
The extent of scarring was measured in accordance with the procedure set out by Khorasani et al. (2011). […]

Experiment [2] relates to full-thickness skin wounds. Nature of the experiment: Collagen content and organisation (picrosirius red, bright-field and polarised light image analysis) in mouse excisional wound model. In kind it is in vivo, Mice. The settings on record: wounds treated versus vehicle; Fig. 5. As for the experimental part:
Four full-thickness skin wounds were performed by cutting the folded skin on the back of the mice with a 7.5 mm x 3 mm elliptical biopsy punch (Elliptical Excisional Instrument, Acuderm Inc.). The skin on the back was raised and folded at the level of the vertebral column by using the thumb and the index finger. The folded skin was then placed on a wood tongue depressor with the animal laying on one side and two wounds were performed through the folded skin by using an elliptical biopsy punch (Elliptical Excisional Instrument, Acuderm Inc.), resulting in four wounds on the back skin: two on the right of the vertebral column and two on the left (Figure 1). […]
Collagen content and organisation were assessed as published by De Visscher et al. (2007, 2008). […] From this the collagen content and organisation can be measured according to the following method.
The total area (At) of the region of interest (ROI) and the area of the red stained material within that area (Ar) on the bright-field image. On the polarized light image, the area of the red illuminated bundles (Ab) is measured. The collagen density and organized collagen are calculated by the following formulae: Collagen density: (Ar/At) × 100 [formula] […]
Both are expressed as a percentage: collagen density as a percentage of the total area and organized collagen as a percentage of the collagen area.

Results on one compound are retold here after patent EP3020398A1, “Compounds and formulations for reducing scarring” (NITTO DENKO CORPORATION, priority 2014, dated 2016).

On to `CCCCC[C@H](O)/C=C/C=C\C=C\C=C\[C@@H](O)[C@@H](O)CCCC(=O)O` [Lipoxin A4], for which the scar index in experiment [1] (1 µM Lipoxin A4 treatment, Figure 4) is 905 µm; in experiment [1] (100 µM Lipoxin A4 treatment, Figure 4) it was 511 µm; in experiment [1] (Pooled Lipoxin A4 treatment, Figure 3, p=0.008 vs vehicle (Vehicle 1478 ± 334)), 748 µm. Further, in experiment [1] (Figure 3, n=5, p<0.008), the “lower scarring than wounds treated with Control (quantitative scar index analysis)” value is listed as 49%. In addition, the “Collagen content (in words, versus vehicle)” value in experiment [2] is “Lower collagen content was observed in wounds treated with vehicle”. The “Collagen organisation (in words, versus vehicle)” value in experiment [2] is “increased values”.
